Source: ChEMBL document CHEMBL1148667, “1,2,4-Oxadiazolidin-3,5-diones and 1,3,5-triazin-2,4,6-triones as cytosolic phospholipase A2alpha inhibitors” (Bioorg Med Chem Lett, 2006)
Activity calls are given as the source filed them. The rule behind the calls is not given here.

Key:
[1] = molecular target: T1, Cytosolic phospholipase A2 (Homo sapiens, UniProt P47712); experiment: Inhibition of cPLA2-alpha by GLU micelle assay
T1 sequence (P47712 whole entry): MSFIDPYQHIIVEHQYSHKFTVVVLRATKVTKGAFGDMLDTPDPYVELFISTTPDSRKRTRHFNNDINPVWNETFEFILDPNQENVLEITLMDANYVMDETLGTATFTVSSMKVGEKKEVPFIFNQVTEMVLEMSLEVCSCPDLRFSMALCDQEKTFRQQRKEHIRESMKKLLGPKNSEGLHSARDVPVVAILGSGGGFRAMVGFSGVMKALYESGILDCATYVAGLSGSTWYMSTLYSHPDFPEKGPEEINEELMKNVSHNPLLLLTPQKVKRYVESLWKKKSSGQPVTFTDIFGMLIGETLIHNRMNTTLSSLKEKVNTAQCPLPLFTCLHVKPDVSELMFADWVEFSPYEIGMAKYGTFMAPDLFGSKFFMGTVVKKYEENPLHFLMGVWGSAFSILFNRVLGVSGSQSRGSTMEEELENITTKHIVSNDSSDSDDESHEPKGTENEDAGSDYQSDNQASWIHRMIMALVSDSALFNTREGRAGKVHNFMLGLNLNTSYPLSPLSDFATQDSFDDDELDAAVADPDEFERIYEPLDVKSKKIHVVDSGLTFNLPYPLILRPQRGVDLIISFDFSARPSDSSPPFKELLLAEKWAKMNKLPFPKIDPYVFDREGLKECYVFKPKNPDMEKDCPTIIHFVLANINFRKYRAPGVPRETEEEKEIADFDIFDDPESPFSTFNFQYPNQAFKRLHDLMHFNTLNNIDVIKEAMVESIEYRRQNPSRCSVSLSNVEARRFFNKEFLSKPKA

MC9 = experiment: Inhibition of PGF2-alpha production in MC9 cell line in presence of arachidonic acid; assay type: functional, cell-based; conditions: Mus musculus
[2] = Inhibition of ionophore-stimulated TXB2 production in rat whole blood; assay type: functional, tissue-based
[3] = Inhibition of LTB4 production in MC9 cell line; assay type: functional, cell-based; conditions: Mus musculus
[4] = Inhibition of PGF2-alpha production in MC9 cell line; assay type: functional, cell-based; conditions: Mus musculus

SMILES | IC50 [1] | other results
O=C(O)c1ccc(OC/C=C/Cn2c(=O)on(CC(c3ccccc3)c3ccccc3)c2=O)cc1 | > 50 µM | 
O=C(O)c1ccc(OCCCn2c(=O)on(CC(c3ccccc3)c3ccccc3)c2=O)cc1 | 12.4 µM | 
O=C(O)c1ccc(OCCn2c(=O)on(CC(c3ccccc3)c3ccccc3)c2=O)cc1O | 27 µM | 
O=C(O)c1ccc(OCCn2c(=O)on(C(Cc3ccccc3)Cc3ccccc3)c2=O)cc1 | > 50 µM | 
O=C(O)c1ccc(OCCCCn2c(=O)on(CC(c3ccccc3)c3ccccc3)c2=O)cc1 | > 50 µM | 
O=C(O)c1cccc(OCCn2c(=O)on(CC(c3ccccc3)c3ccccc3)c2=O)c1 | > 50 µM | 
O=C(O)c1ccc(OCC#CCn2c(=O)on(CC(c3ccccc3)c3ccccc3)c2=O)cc1 | 23 µM | 
O=C(O)c1ccc(OCCn2c(=O)on(CC(c3ccccc3)c3ccccc3)c2=O)cc1 | 6.7 µM | 

The next lines start with results.

IC50 [1] | SMILES | other results
7.5 µM | CCn1c(=O)n(CCOc2ccc(C(=O)O)cc2)c(=O)n(C(c2ccccc2)c2ccccc2)c1=O | 
> 50 µM | O=C(O)c1ccc(OCCn2c(=O)on(C(c3ccccc3)c3ccccc3)c2=O)cc1 | 
1.6 µM | CCn1c(=O)n(C/C=C/COc2ccc(C(=O)O)cc2)c(=O)n(C(c2ccccc2)c2ccccc2)c1=O | 
5.6 µM | CCCCn1c(=O)n(CCOc2ccc(C(=O)O)cc2)c(=O)n(C(c2ccccc2)c2ccccc2)c1=O | 
> 50 µM | O=C(O)c1ccc(OCCn2c(=O)n(-c3ccccc3)c(=O)n(C(c3ccccc3)c3ccccc3)c2=O)cc1 | 
1.3 µM | O=C(O)c1ccc(OC/C=C/Cn2c(=O)n(Cc3ccccc3)c(=O)n(C(c3ccccc3)c3ccccc3)c2=O)cc1 | Activity (MC9): inactive; IC50 [2]: 5.2 µM; IC50 [3]: 0.5 µM; IC50 [4]: 0.8 µM
30 µM | O=C(O)c1ccc(OCCn2c(=O)n(Cc3ccccc3)c(=O)n(CC(c3ccccc3)c3ccccc3)c2=O)cc1 | 
3.5 µM | O=C(O)c1ccc(OCCn2c(=O)n(Cc3ccccc3)c(=O)n(C(c3ccccc3)c3ccccc3)c2=O)cc1 | 
2.4 µM | CCCCn1c(=O)n(C/C=C/COc2ccc(C(=O)O)cc2)c(=O)n(C(c2ccccc2)c2ccccc2)c1=O | 
1.3 µM | C=CCn1c(=O)n(C/C=C/COc2ccc(C(=O)O)cc2)c(=O)n(C(c2ccccc2)c2ccccc2)c1=O | 
5 µM | C=CCn1c(=O)n(CCOc2ccc(C(=O)O)cc2)c(=O)n(C(c2ccccc2)c2ccccc2)c1=O | 
